Source: patent publication US8222267B2 (priority 2009, dated 2012)

Key:
[1] = Open-label pilot study, adverse events / safety of MOXDUO, PERCOCET and preceding IV PCA morphine
[2] = Pharmacokinetics after single oral co-administered dose of morphine and oxycodone (about 3:2) in healthy subjects; conditions: for AUC0-∞ (dose adjusted) / Cmax: healthy subjects, n = 18
Description: Values for the observed maximum plasma concentration (Cmax), total area under the plasma concentration-time curve (AUC0-∞) and the time to maximum plasma concentration (Tmax) were determined.

SMILES	Overall incidence of nausea, pruritus, constipation, and dizziness ([1]; during IV PCA morphine use vs same time period after first dose of study medication)	Subjects with moderate or severe nausea ([1]; while on IV PCA morphine, before study medication)	AUC0-∞ (dose adjusted) ([2]; single oral co-administered dose morphine/oxycodone 3 mg/2 mg)	AUC0-∞ (dose adjusted) ([2]; single oral co-administered dose morphine/oxycodone 12 mg/8 mg)	Tmax ([2]; human, plasma, po)	Cmax ([2]; human, plasma, po, single oral co-administered dose morphine/oxycodone 3 mg/2 mg)	Cmax ([2]; human, plasma, po, single oral co-administered dose morphine/oxycodone 12 mg/8 mg)	Dose proportionality of plasma levels ([2]; single-dose combination, 3 mg/2 mg to 12 mg/8 mg dose range, dose-normalized Cmax and AUC0-∞ within 80-125% limits)
CN1CC[C@]23c4c5ccc(O)c4O[C@H]2[C@@H](O)C=C[C@H]3[C@H]1C5 [Morphine, morphine]	higher	25%	–	–	–	–	–	–
COc1ccc2c3c1O[C@H]1C(=O)CC[C@@]4(O)[C@@H](C2)N(C)CC[C@]314 [Oxycodone, oxycodone]	–	–	9.62 ng·h/mL/mg	9.62 ng·h/mL/mg	1 h	4.9 ng/mL	17.8 ng/mL	increase linearly in a dose-proportionate manner
